Earlier results in PMC6500982 (Cancer Science, 2019).

Conditions: B‐cell NHL, European phase I study; cited from earlier work

CC#CC(=O)N1CC[C@@H](n2c(=O)n(-c3ccc(Oc4ccccc4)cc3)c3c(N)ncnc32)C1 [tirabrutinib]
Tolerability observed up to (dose): up to 480 mg once daily (QD)
